Experimental findings from patent US10973826B2, “Antibody conjugates comprising toll-like receptor agonist” (Novartis AG, priority 2015, dated 2021) are described below.

A short description of this data set: In vitro stability of conjugates in mouse serum (LC-MS: succinimide ring hydrolysis, deconjugation). The data set is classed as in vitro ADME. The settings on record: conjugates of the compound with anti-HER2 mAb2. As to the method:
The stability of the bond formed between maleimide containing payloads and Cys residues of the antibody is enhanced by the hydrolysis of the succinimide ring formed in this reaction. The effects of succinimide ring hydrolysis on the stability of antibody conjugates prepared with agonist compounds of the invention were studied after in vitro incubation in mouse serum. Mass changes resulting from payload deconjugation and the hydrolysis of the succinimide ring of maleimide payloads conjugated to antibodies were monitored by LC-MS. The hydrolysis of the succinimide ring has been reported to be stimulated by certain conditions such as high pH, high temperature, or high salts (J. Am. Chem. Soc. 1955, 77: 3922; Biochemistry 1976, 15: 2836; Biochem. J. 1979, 179: 191-197; J Pharm Sci. 1984, 73:1767-1771; Bioorg. Med. Chem. Lett. 17: 6286-6289, 2007). To probe the in vitro stability of conjugates, anti-HER2 antibody mAb2 conjugates were incubated at 37° C. in 50-70% mouse serum. […] The light chain, heavy chain Fab, and heavy chain Fc fragments were then analyzed by ESI-MS. The relative populations of deconjugated antibody, conjugates with attached payload with hydrolyzed succinimide ring, and conjugates with attached payload with intact succinimide ring, were calculated from the relative MS intensities of the corresponding conjugate species. […]

As to `CCCCCNc1nc(N)nc2ccn(Cc3ccc(CN4CCN(CCN5C(=O)C=CC5=O)CC4)cc3OC)c12` [Compound C-5, 1-(2-(4-(4-((2-amino-4-(pentylamino)-5H-pyrrolo[3,2-d]pyrimidin-5-yl)methyl)-3-methoxybenzyl)piperazin-1-yl)ethyl)-1H-pyrrole-2,5-dione], the “conjugate stability (deconjugation, succinimide ring hydrolysis)” value was “improved conjugate stability”. The result for `CCCCCNc1nc(N)nc2ccn(Cc3ccc(CN4CCN(C(=O)CCOCCOCCNC(=O)CN5C(=O)C=CC5=O)CC4)cc3OC)c12` [Compound C-21, N-(2-(2-(3-(4-(4-((2-amino-4-(pentylamino)-5H-pyrrolo[3,2-d]pyrimidin-5-yl)methyl)-3-methoxybenzyl)piperazin-1-yl)-3-oxopropoxy)ethoxy)ethyl)-2-(2,5-dioxo-2,5-dihydro-1H-pyrrol-1-yl)acetamide] reads “improved conjugate stability”.
